Patent US11946094B2, “Combination therapies and methods of use thereof” (Augusta University Research Institute, Inc., priority 2017, dated 2024)
Like-named read-outs stand apart in the source and are kept apart here.

Test system: OVCAR-8 cells
Assay: Drug-siRNA combination screen: 346-compound anticancer library at 100 nM, CCK-8 viability
Details: for synergy / antagonism of drug with gene knockdowns, in words / number of genes (of 18) whose knockdown synergizes with the drug: drug 100 nM; for synergy / antagonism of drug with gene knockdowns, in words: panel of 18 siRNA knockdowns; for number of genes (of 18) whose knockdown synergizes with the drug: siRNA knockdown
[1] = OVCAR-8, drug 100 nM plus siRNA knockdown of each of 18 genes, distance VAB−VA×VB in SD, single gene contributes at most +5 / −5, negative = synergy, positive = antagonism

| Compound | Score (sum of observed SD values for 18 genes) [1] | other results |
| --- | --- | --- |
| O=C(NC1CCNCC1)c1n[nH]cc1NC(=O)c1c(Cl)cccc1Cl [AT7519] | −24.02 SD |  |
| Cc1cc(Nc2cc(N3CCN(C)CC3)nc(Sc3ccc(NC(=O)C4CC4)cc3)n2)[nH]n1 [Tozasertib] | −4.08 SD |  |
| CCOC(=O)C1=C[C@]2(CC)CCCN3CCc4c(n1c1ccccc41)[C@@H]32 [Vinpocetine] | −1.42 SD |  |
| COc1cc2ncnc(-n3nc(-c4ccccn4)nc3N)c2cc1OC [CP-466722] | 2.79 SD |  |
| O=C1[C@H](CC[C@H](O)c2ccc(F)cc2)[C@@H](c2ccc(O)cc2)N1c1ccc(F)cc1 [Ezetimibe] | −5.31 SD |  |
| COC(=O)c1ccc2c(c1)NC(=O)/C2=C(\Nc1ccc(N(C)C(=O)CN2CCN(C)CC2)cc1)c1ccccc1 [Nintedanib] | −36.11 SD |  |
| C#Cc1cccc(Nc2ncnc3cc(OC)c(OCCCCCCC(=O)NO)cc23)c1 [CUDC-101] | −46.83 SD | synergy / antagonism of drug with gene knockdowns, in words (OVCAR-8): mostly synergistic; number of genes (of 18) whose knockdown synergizes with the drug (OVCAR-8): 11 genes |
| CC1(COc2ccc3c(c2)ncn3-c2ccc3cccc(N4CCC(N)CC4)c3n2)COC1 [Crenolanib] | −18.09 SD |  |
| Cc1c(NC(=O)OC[C@@H]2COCCN2)cn2ncnc(Nc3ccc4c(cnn4Cc4cccc(F)c4)c3)c12 [BMS-599626] | −40.89 SD | synergy / antagonism of drug with gene knockdowns, in words (OVCAR-8): significant synergy with nine or more genes |
| CC(C)[C@H](C(=O)Nc1ccc(C(=O)NO)cc1)c1ccccc1 [AR-42] | −36.88 SD | synergy / antagonism of drug with gene knockdowns, in words (OVCAR-8): mostly synergistic; number of genes (of 18) whose knockdown synergizes with the drug (OVCAR-8): 10 genes |
| COc1ccc(C2=N[C@@H](c3ccc(Cl)cc3)[C@@H](c3ccc(Cl)cc3)N2C(=O)N2CCNC(=O)C2)c(OC(C)C)c1 [Nutlin-3] | −5.25 SD |  |
| CN(c1ncccc1CNc1nc(Nc2ccc3c(c2)CC(=O)N3)ncc1C(F)(F)F)S(C)(=O)=O [PF - 562271] | −17.41 SD |  |
| Cn1cnc([N+](=O)[O-])c1Sc1ncnc2nc[nH]c12 [Azathioprine] | −28.48 SD |  |
| CN1CCN(c2nc(C3=C(c4c[nH]c5ccccc45)C(=O)NC3=O)c3ccccc3n2)CC1 [Sotrastaurin] | −16.11 SD |  |
| N.N.[Cl][Pt][Cl] [Cisplatin] | −21 SD |  |
| CC(C)n1nc(-c2ccc3oc(N)nc3c2)c2c(N)ncnc21 [INK 128] | −44.98 SD |  |
| C[C@]12C=CC(=O)C=C1CC[C@@H]1[C@@H]2C(=O)C[C@@]2(C)[C@H]1CC[C@]2(O)C(=O)CO [Prednisone] | −20.64 SD |  |
| CS(=O)(=O)N1CCN(Cc2cc3nc(-c4cccc5[nH]ncc45)nc(N4CCOCC4)c3s2)CC1 [GDC-0941] | -58.02 SD | synergy / antagonism of drug with gene knockdowns, in words (OVCAR-8): synergy to the vast majority of genes |
| CC[C@@H]1C(=O)N(C)c2cnc(Nc3ccc(C(=O)N[C@H]4CC[C@H](N5CCN(CC6CC6)CC5)CC4)cc3OC)nc2N1C(C)C [Volasertib] | 10.79 SD |  |
| CN(C)CC[C@H](CSc1ccccc1)Nc1ccc(S(=O)(=O)NC(=O)c2ccc(N3CCN(Cc4ccccc4-c4ccc(Cl)cc4)CC3)cc2)cc1[N+](=O)[O-] [ABT-737] | −5.9 SD |  |
| O=c1cc(-c2cccc3c2Sc2ccccc2S3)oc(N2CCOCC2)c1 [KU-55933] | −14.37 SD |  |
| Oc1nc(-c2ccc(C(F)(F)F)cc2)nc2c1CSCC2 [XAV-939] | −29.25 SD |  |

| Compound | Score (sum of observed SD values for 18 genes) [1] | other results |
| --- | --- | --- |
| O=S(=O)([O-])CCSSCCS(=O)(=O)[O-].[Na+].[Na+] [Dimesna] | −2.17 SD |  |
| O=C(O)c1ccc2c(c1)nc(Nc1cccc(Cl)c1)c1ccncc12 [Silmitasertib] | −4.51 SD |  |
| COc1ncc(-c2ccc3nccc(-c4ccnnc4)c3c2)cc1NS(=O)(=O)c1ccc(F)cc1F [GSK2126458] | −22.4 SD |  |
| Cl.O=C(O)Cc1cccc(OCCCN(Cc2cccc(C(F)(F)F)c2Cl)CC(c2ccccc2)c2ccccc2)c1 [GW3965 HCI] | −11.35 SD |  |
| CCCC(=O)[O-].[Na+] [Sodium butyrate] |  | Score (sum of observed SD values for 18 genes): −16.25 SD |
| COc1cc(N2CCC(N3CCN(C)CC3)CC2)ccc1Nc1ncc(Cl)c(Nc2ccccc2S(=O)(=O)C(C)C)n1 [TAE684] | −35.61 SD |  |
| CCN(CC)CCCCNc1ncc2cc(-c3cc(OC)cc(OC)c3)c(NC(=O)NC(C)(C)C)nc2n1 [PD173074] | −46.63 SD | synergy / antagonism of drug with gene knockdowns, in words (OVCAR-8): significant synergy with nine or more genes |
| COc1cccc2c1C(=O)c1c(O)c3c(c(O)c1C2=O)C[C@@](O)(C(=O)CO)C[C@@H]3O[C@H]1C[C@H](N)[C@H](O)[C@H](C)O1 [Doxorubicin] | 15.09 SD |  |
| Cn1cnc2c(F)c(Nc3ccc(Br)cc3Cl)c(C(=O)NOCCO)cc21 [Selumetinib] | -63.99 SD | number of genes (of 18) whose knockdown synergizes with the drug (OVCAR-8): 16 genes |
| COc1c(C)c2c(c(O)c1C/C=C(\C)CCC(=O)OCCN1CCOCC1)C(=O)OC2 [Mycophenolate mofetil] | −3.2 SD |  |
| Cc1[nH]c(/C=C2\C(=O)Nc3ccc(S(=O)(=O)N(C)c4cccc(Cl)c4)cc32)c(C)c1C(=O)N1CCN(C)CC1 [SU11274] | −0.42 SD |  |
| CCOc1ccn(-c2ccc(F)cc2)c(=O)c1C(=O)Nc1ccc(Oc2ccnc(N)c2Cl)c(F)c1 [BMS 777607] | −14.73 SD |  |
| CO[C@H]1/C=C\C=C(/C)C(=O)NC2=CC(=O)C(NCCN(C)C)=C(C[C@@H](C)C[C@H](OC)[C@H](O)[C@@H](C)/C=C(\C)[C@@H]1OC(N)=O)C2=O.Cl [17 - DMAG HCI] | 19.7 SD |  |
| C[C@](O)(COc1ccc(C#N)cc1)C(=O)Nc1ccc(C#N)c(C(F)(F)F)c1 [Ostarine] | −14.47 SD |  |
| COc1ccc2c(c1OC)N=C(NC(=O)c1cccnc1)N1CCN=C21 [PIK-90] | −44.52 SD |  |
| NC(=O)Nc1sc(-c2ccc(F)cc2)cc1C(N)=O [TPCA-1] | 4.7 SD |  |
| CN(CCOc1ccc(CC2SC(=O)NC2=O)cc1)c1ccccn1 (stereo not drawn) [Rosiglitazone] | −27.32 SD |  |
| Cc1nc2ccc(CN(C)c3ccc(C(=O)N[C@@H](CCC(=O)O)C(=O)O)s3)cc2c(=O)[nH]1 [Raltitrexed] | 44.53 SD |  |
| Cc1nc(-c2ccc(OCC(C)C)c(C#N)c2)sc1C(=O)O [Febuxostat] | −18.04 SD |  |
| C/C(=C\c1csc(C)n1)[C@@H]1C[C@@H]2O[C@]2(C)CCC[C@H](C)[C@H](O)[C@@H](C)C(=O)C(C)(C)[C@@H](O)CC(=O)O1 [Epothilone B] | 17.57 SD |  |
| CCN(CCCOc1ccc2c(Nc3cc(CC(=O)Nc4cccc(F)c4)n[nH]3)ncnc2c1)CCOP(=O)(O)O [Barasertib] | 20.03 SD |  |
